Legend:
SIK2 [1] = molecular target: T1, SIK2 (Homo sapiens, UniProt Q9H0K1); assay: SIK2 Enzymatic Assay Version 1 (ADP Glo); assay type: biochemical; conditions: enzyme 0.6 nM, 160 μM ATP and 140 μM HDAC5tide (each 2× final concentration); 30 minutes pre-incubation, 4 hours; ADPGlo luminescence; read-out: SIK2 ADP Glo IC50 (μM) (Test Example 1)
In short: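 Room-temperature ADP-Glo luminescence assay; SIK2 added at 0.6 nM (2× final) and preincubated with compound for 30 min. Reaction stopped with ADP-Glo Reagent for 40 min, then detection reagent for at least 30 min; no-peptide (ATP-only) wells served as negative control.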

SIK2 [2] = molecular target: T1, SIK2; assay: SIK2 Enzymatic Assay High Version 2 (High ATP); assay type: biochemical
In short: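 At room temperature, enzyme (6 nM, 2× final) was preincubated with compound for 30 min, then 6 mM ATP and 400 μM HDAC5tide (both 2× final) were added for 2 h. ADP formed was measured by ADP-Glo Max (2 h reagent, 1 h detection) using luminescence.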

T1 sequence (Q9H0K1 whole entry, species assumed): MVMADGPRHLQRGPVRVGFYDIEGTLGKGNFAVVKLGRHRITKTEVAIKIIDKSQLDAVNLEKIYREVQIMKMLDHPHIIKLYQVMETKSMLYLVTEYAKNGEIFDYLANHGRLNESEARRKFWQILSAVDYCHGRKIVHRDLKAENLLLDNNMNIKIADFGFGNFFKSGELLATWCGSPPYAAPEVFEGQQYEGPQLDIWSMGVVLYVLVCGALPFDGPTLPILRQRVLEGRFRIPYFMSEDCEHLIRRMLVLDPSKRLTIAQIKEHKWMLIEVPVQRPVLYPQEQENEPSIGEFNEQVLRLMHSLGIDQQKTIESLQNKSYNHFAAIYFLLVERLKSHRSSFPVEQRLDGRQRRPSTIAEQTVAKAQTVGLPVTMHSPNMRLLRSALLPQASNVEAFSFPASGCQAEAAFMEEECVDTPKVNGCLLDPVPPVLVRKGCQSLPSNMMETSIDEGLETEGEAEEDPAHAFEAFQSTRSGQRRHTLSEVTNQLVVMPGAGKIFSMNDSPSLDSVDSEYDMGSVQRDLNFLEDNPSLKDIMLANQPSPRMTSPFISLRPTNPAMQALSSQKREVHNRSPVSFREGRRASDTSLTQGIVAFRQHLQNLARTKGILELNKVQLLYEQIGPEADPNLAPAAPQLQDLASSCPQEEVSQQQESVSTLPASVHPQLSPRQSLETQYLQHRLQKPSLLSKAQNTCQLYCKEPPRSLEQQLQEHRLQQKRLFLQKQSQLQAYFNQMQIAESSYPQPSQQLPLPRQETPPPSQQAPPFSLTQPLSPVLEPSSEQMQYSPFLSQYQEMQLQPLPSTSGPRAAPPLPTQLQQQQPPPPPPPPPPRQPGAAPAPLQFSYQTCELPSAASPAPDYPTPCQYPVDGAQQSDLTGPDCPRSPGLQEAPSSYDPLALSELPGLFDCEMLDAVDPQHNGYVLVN

SMILES	IC50 (SIK2 [1]) [µM]	IC50 (SIK2 [2]) [nM]
Cc1cc(-c2ccn3nc(NC(=O)C4CC4)cc3c2)c(O[C@@H]2CC[C@@H](N)C2)cn1 [Example 153, N-[5-[5-[(1R,3R)-3-aminocyclopentoxy]-2-methyl-4-pyridyl]pyrazolo[1,5-a]pyridin-2-yl]cyclopropanecarboxamide]	0.000688	13.7
Cc1cc(-c2ccn3nc(NC(=O)C4CC4)cc3c2)c(OCC2(N)CCC2)cn1 [Example 154, N-[5-[5-[(1-aminocyclobutyl)methoxy]-2-methyl-4-pyridyl]pyrazolo[1,5-a]pyridin-2-yl]cyclopropanecarboxamide]	0.00116	24
Cc1cc(-c2ccn3nc(NC(=O)C4CC4)cc3c2)c(OCC2(N)CCCC2)cn1 [Example 155, N-[5-[5-[(1-aminocyclopentyl)methoxy]-2-methyl-4-pyridyl]pyrazolo[1,5-a]pyridin-2-yl]cyclopropanecarboxamide]	0.00108	15.6
CNC1(COc2cnc(C)cc2-c2ccn3nc(NC(=O)C4CC4)cc3c2)CCC1 [Example 156, N-[5-[2-methyl-5-[[1-(methylamino)cyclobutyl]methoxy]-4-pyridyl]pyrazolo[1,5-a]pyridin-2-yl]cyclopropanecarboxamide]	0.00369	78.8
Cc1cc(-c2ccn3nc(NC(=O)C4CC4)cc3c2)c(O[C@H]2CC[C@H](O)CC2)cn1 [Example 158, trans-N-[5-[5-(4-hydroxycyclohexoxy)-2-methyl-4-pyridyl]pyrazolo[1,5-a]pyridin-2-yl]cyclopropanecarboxamide]	0.00132	18.3
Cc1cc(-c2ccn3nc(NC(=O)C4CC4)cc3c2)c(OC[C@H]2CNCCO2)cn1 [Example 166, N-[5-[2-methyl-5-[[(2R)-morpholin-2-yl]methoxy]-4-pyridyl]pyrazolo[1,5-a]pyridin-2-yl]cyclopropanecarboxamide]	0.00101	15.9
Cc1cc(-c2ccn3nc(NC(=O)C4CC4)cc3c2)c(OC[C@@H]2CNC(C)(C)CO2)cn1 [Example 167, N-[5-[5-[[(2S)-5,5-dimethylmorpholin-2-yl]methoxy]-2-methyl-4-pyridyl]pyrazolo[1,5-a]pyridin-2-yl]cyclopropanecarboxamide]	0.00059	8.8
Cc1cc(-c2ccn3nc(NC(=O)C4CC4)cc3c2)c(OC[C@@H]2CN[C@H](C)CO2)cn1 [Example 168, N-[5-[2-methyl-5-[[(2S,5R)-5-methylmorpholin-2-yl]methoxy]-4-pyridyl]pyrazolo[1,5-a]pyridin-2-yl]cyclopropanecarboxamide]	0.000382	4.73
Cc1cc(-c2ccn3nc(NC(=O)C4CC4)cc3c2)c(OCC2(F)CN(C)C2)cn1 [Example 169, N-[5-[5-[(3-fluoro-1-methyl-azetidin-3-yl)methoxy]-2-methyl-4-pyridyl]pyrazolo[1,5-a]pyridin-2-yl]cyclopropanecarboxamide]	0.00307	50.7
Cc1cc(-c2ccn3nc(NC(=O)C4CC4)cc3c2)c(O[C@H]2C[C@H](N)C2)cn1 [Example 170, trans-N-[5-[5-(3-aminocyclobutoxy)-2-methyl-4-pyridyl]pyrazolo[1,5-a]pyridin-2-yl]cyclopropanecarboxamide]	0.000853	12.9
Cc1cc(-c2ccn3nc(NC(=O)C4CC4)cc3c2)c(OC[C@H]2C[C@@H](N)C2)cn1 [Example 171, cis-N-[5-[5-[(3-aminocyclobutyl)methoxy]-2-methyl-4-pyridyl]pyrazolo[1,5-a]pyridin-2-yl]cyclopropanecarboxamide]	0.000617	12.3
N#Cc1cc(-c2ccn3nc(NC(=O)C4CC4)cc3c2)c(OC[C@H]2C[C@@H](N)C2)cn1 [Example 175, N-(5-(5-(((1s,3s)-3-aminocyclobutyl)methoxy)-2-cyanopyridin-4-yl)pyrazolo[1,5-a]pyridin-2-yl)cyclopropanecarboxamide]	0.000443	8.45
N#Cc1cc(-c2ccn3nc(NC(=O)C4CC4)cc3c2)c(OC[C@H]2C[C@@H](Nc3ccccn3)C2)cn1 [Example 176, cis-N-[5-[2-cyano-5-[[3-(2-pyridylamino)cyclobutyl]methoxy]-4-pyridyl]pyrazolo[1,5-a]pyridin-2-yl]cyclopropanecarboxamide]	0.00196	55.5
Cn1ccc(N[C@H]2C[C@@H](COc3cnc(C#N)cc3-c3ccn4nc(NC(=O)C5CC5)cc4c3)C2)n1 [Example 177, cis-N-[5-[2-cyano-5-[[3-[(1-methylpyrazol-3-yl)amino]cyclobutyl]methoxy]-4-pyridyl]pyrazolo[1,5-a]pyridin-2-yl]cyclopropanecarboxamide]	0.00137	29.3
Cc1cc(-c2ccn3nc(Nc4ccn(C)n4)cc3c2)c(O[C@H]2CC[C@H](O)CC2)cn1 [Example 181, trans-4-[[6-methyl-4-[2-[(1-methylpyrazol-3-yl)amino]pyrazolo[1,5-a]pyridin-5-yl]-3-pyridyl]oxy]cyclohexanol]	0.00236	32
Cc1cc(-c2ccn3nc(Nc4ccccn4)cc3c2)c(O[C@H]2CC[C@H](O)CC2)cn1 [Example 182, trans-4-[[6-methyl-4-[2-(2-pyridylamino)pyrazolo[1,5-a]pyridin-5-yl]-3-pyridyl]oxy]cyclohexanol]	0.00176	33.8
Cc1cc(-c2ccn3nc(Nc4ccn(C)n4)cc3c2)c(O[C@H]2CC[C@@H](O)CC2)cn1 [Example 184, cis-4-[[6-methyl-4-[2-[(1-methylpyrazol-3-yl)amino]pyrazolo[1,5-a]pyridin-5-yl]-3-pyridyl]oxy]cyclohexanol]	0.00175	14
CC#Cc1cc(-c2ccn3nc(NC(=O)C4CC4)cc3c2)c(O[C@H]2CC[C@H](O)CC2)cn1 [Example 185, trans-N-[5-[5-(4-hydroxycyclohexoxy)-2-prop-1-ynyl-4-pyridyl]pyrazolo[1,5-a]pyridin-2-yl]cyclopropanecarboxamide]	0.000366	< 0.838
Cc1cc(-c2ccn3nc(Nc4cccnc4)cc3c2)c(O[C@H]2CC[C@H](O)CC2)cn1 [Example 290, (1r,4r)-4-((6-methyl-4-(2-(pyridin-3-ylamino)pyrazolo[1,5-a]pyridin-5-yl)pyridin-3-yl)oxy)cyclohexan-1-ol]	0.00439	83.1
Cc1ccnc(Nc2cc3cc(-c4cc(C)ncc4OC[C@@H]4CNCCO4)ccn3n2)c1 [Example 427, 5-[2-methyl-5-[[(2S)-morpholin-2-yl]methoxy]-4-pyridyl]-N-(4-methyl-2-pyridyl)pyrazolo[1,5-a]pyridin-2-amine]	0.0012	11.5
Cc1cc(-c2ccn3nc(Nc4ccccn4)cc3c2)c(OC[C@H]2CNCCO2)cn1 [Example 428, 5-[2-methyl-5-[[(2R)-morpholin-2-yl]methoxy]-4-pyridyl]-N-(2-pyridyl)pyrazolo[1,5-a]pyridin-2-amine]	0.00201	20.8
Cc1cc(-c2ccn3nc(Nc4cc(C)nc(C)n4)cc3c2)c(OC[C@@H]2CNCCO2)cn1 [Example 432, N-(2,6-dimethylpyrimidin-4-yl)-5-[2-methyl-5-[[(2S)-morpholin-2-yl]methoxy]-4-pyridyl]pyrazolo[1,5-a]pyridin-2-amine]	0.000345	1.71
CC#Cc1cc(-c2ccn3nc(NC(=O)C4CC4)cc3c2)c(OC[C@@H]2CCN(C)C2)cn1 [Example 441, N-[5-[5-[[(3R)-1-methylpyrrolidin-3-yl]methoxy]-2-prop-1-ynyl-4-pyridyl]pyrazolo[1,5-a]pyridin-2-yl]cyclopropanecarboxamide]	0.00106	12.1
CC#Cc1cc(-c2ccn3nc(NC(=O)C4CC4)cc3c2)c(OC2CN(C)C2)cn1 [Example 442, N-[5-[5-(1-methylazetidin-3-yl)oxy-2-prop-1-ynyl-4-pyridyl]pyrazolo[1,5-a]pyridin-2-yl]cyclopropanecarboxamide]	0.000323	3.75
Cc1cc(-c2ccn3nc(NC(=O)C4CC4)cc3c2)c(O[C@H]2C[C@](C)(N)C2)cn1 [Example 444, N-(5-(5-((1r,3r)-3-amino-3-methylcyclobutoxy)-2-methylpyridin-4-yl)pyrazolo[1,5-a]pyridin-2-yl)cyclopropanecarboxamide]	0.000605	1.63
CC(C)(C#N)COc1cnc(OC(F)F)cc1-c1ccn2nc(Nc3ccn4ncnc4c3)cc2c1 [Example 475, 3-[[6-(difluoromethoxy)-4-[2-([1,2,4]triazolo[1,5-a]pyridin-7-ylamino)pyrazolo[1,5-a]pyridin-5-yl]-3-pyridyl]oxy]-2,2-dimethyl-propanenitrile]	0.00205	27.1
N#Cc1ccc(OC[C@@H]2CCNC2)c(-c2ccn3nc(NC(=O)C4CC4)cc3c2)c1 [Example 476, N-[5-[5-cyano-2-[[(3R)-pyrrolidin-3-yl]methoxy]phenyl]pyrazolo[1,5-a]pyridin-2-yl]cyclopropanecarboxamide]	0.00386	55.6
Cc1cc(-c2ccn3nc(Nc4cc(C)nc(C)n4)cc3c2)c(O[C@H]2CC[C@H](O)CC2)nn1 [Example 488, 4-[4-[2-[(2,6-dimethylpyrimidin-4-yl)amino]pyrazolo[1,5-a]pyridin-5-yl]-6-methyl-pyridazin-3-yl]oxycyclohexanol]	0.00294	116
CN1CC[C@@H](COc2cnccc2-c2ccn3nc(NC(=O)C4CC4)cc3c2)C1 [Example 489, N-[5-[3-[[(3R)-1-methylpyrrolidin-3-yl]methoxy]-4-pyridyl]pyrazolo[1,5-a]pyridin-2-yl]cyclopropanecarboxamide]	0.000791	10.3
